Like-named read-outs stand apart in the source and are kept apart here.
What was measured:
Format in all cases: in vivo
Puccinia triticina = assay: Wheat Brown Rust fungicidal activity (PUCCRT); conditions: Puccinia triticina; for pest or weed control at 100 ppm: rate 100 ppm; for pest or weed control at 121.5 g/ha: rate 121.5 g/H
Summary of the method: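 Yuma wheat seedlings at first-leaf stage sprayed to run-off (acetone solution in water with 110 ppm Triton X-100) or track-sprayed as EC with 0.1% Trycol 5941; inoculated with P. triticina spores before or after treatment. Overnight dark dew at 22° C., then greenhouse 24° C.; disease severity 0–100% gives percent control vs untreated.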

Rhyncosporium secalis = assay: Barley Scald fungicidal activity (RHYNSE); conditions: Hordeum vulgare, 24 h, 1 Day Protectant, read-out: Disease Control RHYNSE 1DP
Description: Technical grades of materials were dissolved in acetone, which were then mixed with nine volumes of water containing 110 ppm Triton X-100. The fungicide solutions were applied onto wheat seedlings using an automated booth sprayer to run-off. All sprayed plants were allowed to air dry prior to further handling. All fungicides were evaluated using the aforementioned method for their activity vs. all target diseases. Wheat leaf blotch and brown rust activity were also evaluated using track spray applications, in which case the fungicides were formulated as EC formulations, containing 0.1% Trycol 5941 in the spray solutions. Wheat plants (variety Yuma) were grown from seed in a greenhouse in 50% mineral soil/50% soil-less Metro mix until the first leaf was fully emerged, with 7-10 seedlings per pot. These plants were inoculated with an aqueous spore suspension of Septoria tritici either prior to or after fungicide treatments. After inoculation the plants were kept in 100% relative humidity (one day in a dark dew chamber followed by two to three days in a lighted dew chamber at 20° C.) to permit spores to germinate and infect the leaf. The plants were then transferred to a greenhouse set at 20° C. for disease to develop. When disease symptoms were fully expressed on the 1st leaves of untreated plants, infection levels were assessed on a scale of 0 to 100 percent disease severity. Percent disease control was calculated using the ratio of disease severity on treated plants relative to untreated plants. Evaluation of Fungicidal Activity: Barley Scald (Rhyncosporium secalis; Bayer Code […]) Barley seedlings (variety Harrington) were propagated in soil-less Metro mix, with each pot having 8 to 12 plants, and used in the test when first leaf was fully emerged. Test plants were inoculated by an aqueous spore suspension of Rhyncosporium secalis 24 hr after fungicide treatments. After inoculation the plants were kept in a dew room at 20° C. with 100% relative humidity for 48 hr. The plants were then transferred to a greenhouse set at 20° C. for disease to develop. Fungicide formulation, application and disease assessment on the sprayed leaves followed the procedures as described in the Example A.

[1] = test system: Mycosphaerella graminicola; Anamorph: Septoria tritici; assay: Leaf Blotch of Wheat fungicidal activity (SEPTTR); conditions: Zymoseptoria tritici; for pest or weed control at 100 ppm: rate 100 ppm; for pest or weed control at 121.5 g/ha: rate 121.5 g/H
Summary of the method: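 Acetone solutions diluted with nine volumes of water containing 110 ppm Triton X-100, sprayed to run-off on first-leaf wheat seedlings (Yuma), inoculated with S. tritici before or after treatment. Plants held in dew chambers, then in a 20 °C greenhouse. Disease severity (0–100%) scored when untreated plants fully symptomatic; % control relative to untreated.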

[2] = 24 h, 1 Day Protectant, read-out: Disease control PUCCRT 1DP
[3] = 72 h, 3 Day Curative, read-out: Disease control PUCCRT 3DC
[4] = 24 h, 1 Day Protectant, read-out: Disease control SEPTTR 1DP
[5] = 72 h, 3 Day Curative, read-out: Disease control SEPTTR 3DC

| Structure (SMILES) | pest or weed control at 100 ppm (Puccinia triticina; [2]) [%] | pest or weed control at 121.5 g/ha (Puccinia triticina; [2]) [%] | pest or weed control at 100 ppm (Puccinia triticina; [3]) [%] | pest or weed control at 121.5 g/ha (Puccinia triticina; [3]) [%] | pest or weed control at 100 ppm (Rhyncosporium secalis) [%] | pest or weed control at 100 ppm [1, 4] [%] | pest or weed control at 121.5 g/ha [1, 4] [%] | pest or weed control at 100 ppm [1, 5] [%] | pest or weed control at 121.5 g/ha [1, 5] [%] |
| --- | --- | --- | --- | --- | --- | --- | --- | --- | --- |
| COc1ccnc(C(=O)N[C@H]2COC[C@H](Cc3ccc(Cl)cc3Cl)[C@@H](OC(=O)C(C)C)[C@H](C)OC2=O)c1OCOC(C)=O [Compound F110] | 80 to 100 | 80 to 100 | 80 to 100 | 0 to 80 | 80 to 100 | 80 to 100 | 80 to 100 | 80 to 100 | 80 to 100 |
| COc1ccnc(C(=O)N[C@H]2COC[C@H](CC3CCCC3)[C@@H](OC(=O)C(C)C)[C@H](C)OC2=O)c1OCOC(C)=O [Compound F114] | 80 to 100 | 80 to 100 | 80 to 100 | 80 to 100 | 80 to 100 | 80 to 100 | 80 to 100 | 80 to 100 | 80 to 100 |
| COc1ccnc(C(=O)N[C@H]2COC[C@H](CC(F)(F)F)[C@@H](OC3CCCC3)[C@H](C)OC2=O)c1OCOC(C)=O [Compound F105] | 80 to 100 | 80 to 100 | 80 to 100 | 80 to 100 | 80 to 100 | 80 to 100 | 80 to 100 | 80 to 100 | 80 to 100 |
| COc1ccnc(C(=O)N[C@H]2COC[C@H](CCC(C)C)[C@@H](OCCCC(F)(F)F)[C@H](C)OC2=O)c1OCOC(C)=O [Compound F107] | 80 to 100 | 80 to 100 | 80 to 100 | 80 to 100 | 80 to 100 | 80 to 100 | 80 to 100 | 80 to 100 | 80 to 100 |
| CCCCCO[C@@H]1[C@@H](Cc2ccc(Cl)cc2Cl)COC[C@H](NC(=O)c2nccc(OC)c2OCOC(=O)COCC)C(=O)O[C@H]1C [Compound F122] | – | 80 to 100 | – | 0 to 80 | 80 to 100 | – | 80 to 100 | – | – |
| COc1ccnc(C(=O)N[C@H]2COC[C@H](Cc3ccc(C)cc3)[C@@H](OCC(C)C)[C@H](C)OC2=O)c1OC(C)=O [Compound F80] | 80 to 100 | 80 to 100 | 80 to 100 | 80 to 100 | – | 80 to 100 | 80 to 100 | 80 to 100 | 80 to 100 |
| COc1ccnc(C(=O)N[C@H]2COC[C@H](Cc3ccc(F)cc3)[C@@H](OCC(C)C)[C@H](C)OC2=O)c1OCOC(C)=O [Compound F96] | 80 to 100 | 80 to 100 | 80 to 100 | 80 to 100 | – | 80 to 100 | 80 to 100 | 80 to 100 | 80 to 100 |
| COc1ccnc(C(=O)N[C@H]2COC[C@H](Cc3ccc(Cl)cc3Cl)[C@@H](OC(=O)C(C)C)[C@H](C)OC2=O)c1OC(C)=O [Compound F73] | 80 to 100 | 80 to 100 | 80 to 100 | 0 to 80 | 80 to 100 | 80 to 100 | 80 to 100 | 80 to 100 | 80 to 100 |
| COc1ccnc(C(=O)N[C@H]2COC[C@H](CCC(C)C)[C@@H](OC(=O)C3CC3)[C@H](C)OC2=O)c1OCOC(C)=O [Compound F108] | 80 to 100 | 80 to 100 | 80 to 100 | 80 to 100 | 80 to 100 | 80 to 100 | 80 to 100 | 80 to 100 | 80 to 100 |
| COc1ccnc(C(=O)N[C@H]2COC[C@H](Cc3ccc(C)cc3)[C@@H](OCC(C)C)[C@H](C)OC2=O)c1OCOC(C)=O [Compound F117] | 80 to 100 | 80 to 100 | 80 to 100 | 80 to 100 | – | 80 to 100 | 80 to 100 | 80 to 100 | 80 to 100 |
| COc1ccnc(C(=O)N[C@H]2COC[C@H](Cc3cccc4ccccc34)[C@@H](OC(=O)C(C)C)[C@H](C)OC2=O)c1OCOC(C)=O [Compound F83, (3S,6S,7R,8S)-3-(3-(acetoxymethoxy)-4-methoxypicolin-amido)-6-methyl-8-(naphthalen-1-ylmethyl)-4-oxo-1,5-dioxonan-7-yl isobutyrate] | 80 to 100 | 80 to 100 | 80 to 100 | 0 to 80 | 80 to 100 | 80 to 100 | 0 to 80 | 80 to 100 | 80 to 100 |
| COc1ccnc(C(=O)N[C@H]2COC[C@H](CCc3ccccc3)[C@@H](OCC(C)C)[C@H](C)OC2=O)c1OCOC(C)=O [Compound F82] | 80 to 100 | 80 to 100 | 80 to 100 | 80 to 100 | 80 to 100 | 80 to 100 | 80 to 100 | 80 to 100 | 80 to 100 |
| COc1ccnc(C(=O)N[C@H]2COC[C@H](Cc3ccc(F)cc3)[C@@H](OCC(C)C)[C@H](C)OC2=O)c1OC(C)=O [Compound F60] | 80 to 100 | 80 to 100 | 80 to 100 | 80 to 100 | – | 80 to 100 | 80 to 100 | 80 to 100 | 80 to 100 |
| CCCCCO[C@@H]1[C@@H](Cc2ccc(Cl)cc2Cl)COC[C@H](NC(=O)c2nccc(OC)c2OC(=O)CCOC)C(=O)O[C@H]1C [Compound F123] | – | 80 to 100 | – | – | 80 to 100 | – | 80 to 100 | – | – |

From patent US9179674B2, “Macrocyclic picolinamide compounds with fungicidal activity” (DOW AGROSCIENCES LLC, priority 2013, dated 2015)
